Assay results taken from patent US12552733B2, “Terpenophenolic compounds and their use” (Phytotherapeutix Ltd., priority 2020, dated 2026).

Assays:
[1] = test system: MES mouse model of seizures; assay: Maximal Electroshock (MES) seizure study; type: in vivo; details: test compounds 200 mg/kg IP, 30 min pretreatment, CBD 100 mg/kg IP, 60 min, one-way ANOVA, Fisher's LSD
Description: Animals were administered vehicle, phenytoin, CBD or test compounds and gross behavioural observations were done for 30 minutes. Proparacaine hydrochloride ophthalmic solution (Butler AHS, Dublin, OH) was applied approximately 10 minutes prior to testing to numb the eyes. Thirty to sixty minutes after administration of vehicle,phenytoin, CBD or test compounds, 0.9% saline solution (sodium chloride in water) was applied to both eyes and electro-convulsions were produced by an alternating current delivered via corneal electrodes by a Rodent Shocker generator at a frequency of 60 Hz (Harvard Apparatus, Holliston, Mass.). Parameters for the ICR:CD1 mice were 0.2 s stimulus duration at an intensity of 25 mA. The criterion for seizure occurrence were presence of a tonic hind limb extension, defined as extension exceeding a 90-degree angle with the plane of the body. […] Any seizure activity (i.e. clonic seizures defined as rapid spasms or jerky movements of the limbs) prior to tonic hind limb seizure were recorded as presence of seizure (noted as 1-yes, 0-no). After seizure exhibition or 20-second timeout, mice were euthanized via cervical dislocation.
(§1) The data was expressed as mean+SEM. Statistical analysis using one-way ANOVA with post-hoc Fisher's LSD test was used to determine statistical significance compared to the vehicle-treated animals.
The results of the MES study are illustrated in FIG. 4: MES: Latency in seconds for seizures to occur in mice. Animals received treatments according to Table 2. […] Data are expressed as the average ±SEM. Data were analysed by One-way ANOVA, followed by a post-hoc Fisher's LSD test. ***P<0.001, *P<0.05, n=1 PTZ Study

[2] = test system: PTZ mouse model of seizures; assay: PTZ-induced seizures study; type: in vivo; details: 30 min pretreatment; for protection from clonic seizures (PTZ) vs vehicle-treated animals / protection from tonic hindlimb seizures (PTZ) vs vehicle-treated animals: test compounds 200 mg/kg IP, CBD 100 mg/kg IP, 60 min, PTZ 100 mg/kg i.p.
Description: Mice were acclimated to the procedure room for at least 30 minutes. Pentylenetetrazole (PTZ; SigmaAldrich) was formulated in water to a concentration of 20 mg/ml. Injections of PTZ were made at a volume of 5 mI/kg to produce a final dose of 100 mg/kg. PTZ injections were i.p. Diazepam was formulated at a concentration of 2 mg/mL and administered at volume of 10 mL/kg to produce a final dose of 20 mg/kg. Time to initial myoclonic and tonic hindlimb extensor response was measured. A 10-min maximum latency to seizure was imposed.
as §1
(§2) Animals received treatments according to Table 3.
as §2

[3] = PK study: plasma levels after i.p. administration, LC/MS/MS; type: in vivo, Mouse; details: 100 mg/kg i.p.; sampled at 30, 60, 120 min
Description: For testing of each compound, six CD-1 mice were divided into 2 groups of 3. Animals were administered test agents via i.p. route and blood collected at 30, 60 and 120 min, administration as outlined in Table 1. Blood samples were collected in EDTA-coated microfuge tubes, inverted and placed on an ice pack prior to centrifugation and storage at −70° C. Samples were extracted using an acetonitrile/protein precipitation method and levels of test agent analysed by LC/MS/MS.
Bioanalytical detection method was developed using an LC/MS/MS (ABI 5000 or 5500). Standard curves of the test agent were prepared in an appropriate biological matrix (plasma). Levels of test article was measured in plasma as per the developed method.
Levels were determined by extrapolating the concentration from a standard curve using linear regression analysis. Method development and bioanalysis was performed by a partner company, Keystone Bioanalytical (North Wales, PA, US).

What does the source list for C=C(C)[C@@H]1CCC(C)=C[C@H]1c1c(O)cc(CCCCC)cc1O [Cannabidiol, reference compound]?
effect in the MES study (latency to tonic hindlimb seizure) vs vehicle [1]: did not produce a significant effect; protection from clonic seizures (PTZ) vs vehicle-treated animals [2]: did not produce a significant effect; protection from tonic hindlimb seizures (PTZ) vs vehicle-treated animals [2]: did not produce a significant effect

With C=C(C)[C@@H]1CCC(C)=C[C@H]1c1c(O)cc(CCc2ccc(O)cc2)cc1O [(−)-trans-CBD-PET-OH, (1′R,2′R)-4-(4-hydroxyphenethyl)-5′-methyl-2′-(prop-1-ene-2-yl)-1′,2′,3′,4′-tetrahydro-[1,1′-biphenyl]-2,6-diol] as the compound, how does the “time at which maximal concentration in plasma was achieved after the injection” value [3] read?
The value was 30 min.

And the “effect in the MES study (latency to tonic hindlimb seizure) vs vehicle” value ([1]; listed as (−)-trans CBD-PET-OH)?
The value was “significantly different from vehicle”.

And the “effect in the MES study (latency to tonic hindlimb seizure) vs vehicle” value ([1]; listed as CBD-PET-OH)?
The value was “effective”.

What about the “protection from tonic hindlimb seizures (PTZ) vs vehicle-treated animals” value ([2]; listed as (−)-trans CBD-PET-OH) of the same compound?
The value was “significant effect, protecting from tonic hindlimb seizures”.

And the “protection from tonic hindlimb seizures (PTZ) vs vehicle-treated animals” value ([2]; listed as CBD-PET-OH)?
The value was “particularly effective against tonic seizures”.

Which results are given for C=C(C)[C@@H]1CCC(C)=C[C@H]1c1c(O)cc(CCc2ccccc2)cc1O [(−)-trans-CBD-PET, (1′R,2′R)-5′-methyl-4-phenethyl-2′-(prop-1-ene-2-yl)-1′,2′,3′,4′-tetrahydro-[1,1′-biphenyl]-2,6-diol]?
time at which maximal concentration in plasma was achieved after the injection [3]: 30 min; protection from clonic seizures (PTZ) vs vehicle-treated animals ([2]; listed as (−)-trans CBD-PET): significant protection from clonic seizures; protection from tonic hindlimb seizures (PTZ) vs vehicle-treated animals ([2]; listed as (−)-trans CBD-PET): significant effect, protecting from tonic hindlimb seizures; protection from clonic seizures (PTZ) vs vehicle-treated animals ([2]; listed as CBD-PET): showing activity against both clonic and tonic seizures; protection from tonic hindlimb seizures (PTZ) vs vehicle-treated animals ([2]; listed as CBD-PET): showing activity against both clonic and tonic seizures

Which “protection from the seizures (PTZ; clonic and tonic hindlimb, FIGS. 5 and 6)” value ([2]; PO, p<0.05) does the source give for CN1C(=O)CN=C(c2ccccc2)c2cc(Cl)ccc21 [diazepam, reference compound] here?
The value was 100%.
